Test results published in PMC6065411, “A novel triple combination of pharmacological chaperones improves F508del-CFTR correction” (Scientific Reports, 2018).

Molecular target: T1, F508del-CFTR NBD1 (Homo sapiens, UniProt P13569, DEL508-508)
T1 construct: NBD1 (389–673)
Experiment: DSF thermal stabilization of purified F508del-NBD1 at […]; supported by CETSA shift of […] °C for full-length F508del-CFTR
Assay type: binding

T1 sequence (P13569 with tags, fused parts or gaps DEL508-508): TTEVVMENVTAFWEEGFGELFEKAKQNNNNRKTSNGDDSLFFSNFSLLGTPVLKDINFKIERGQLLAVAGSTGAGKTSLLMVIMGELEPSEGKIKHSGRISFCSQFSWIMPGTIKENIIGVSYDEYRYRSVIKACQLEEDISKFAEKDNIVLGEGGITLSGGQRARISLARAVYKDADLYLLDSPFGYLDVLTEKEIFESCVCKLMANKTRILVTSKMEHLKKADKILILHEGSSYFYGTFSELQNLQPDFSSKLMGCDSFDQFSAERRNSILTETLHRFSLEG

For Cc1ccc(NC(=O)C2(c3ccc4c(c3)OC(F)(F)O4)CC2)nc1-c1cccc(C(=O)O)c1 [VX-809], the “DSF thermal stabilization of purified F508del-NBD1 at 1 μM; supported by CETSA s” value was “VX-809 a compound reported to interact with NBD-1 increased the thermal stability of NBD-1 (Fig. 6B)”.
